Reference: ChEMBL document CHEMBL1125820, “Structure-activity relationship of mutagenic aromatic and heteroaromatic nitro compounds. Correlation with molecular orbital energies and hydrophobicity” (J Med Chem, 1991)

What was measured:
[1] = Partition coefficient (logP); settings: octanol/water
Salmonella typhimurium = assay: Mutagenic activity in an Ames test on Salmonella Typhimurium TA98; Activity is log of revertants/nmol; format: functional, Salmonella enterica subsp. enterica serovar Typhimurium; set-up: scale not given here

Compound	logP [1]	Activity (Salmonella typhimurium)
O=[N+]([O-])C1=Cc2c3ccc4ccccc4c3cc3cccc1c23	5.07	0.86
O=[N+]([O-])c1cc2c([N+](=O)[O-])ccc3c2c(c1[N+](=O)[O-])-c1ccccc1-3	4.18	3.56
O=[N+]([O-])c1c2ccccc2cc2c3c(ccc12)C(O)C(O)C=C3 (centres undefined)	2.55	
Nc1cccc(-c2ccc([N+](=O)[O-])cc2)c1	2.68	0.25
CN1Cc2ccc([N+](=O)[O-])cc2N1	1.77	-0.41
O=[N+]([O-])c1cc2c3c(ccc([N+](=O)[O-])c3c1)-c1ccccc1-2	4.44	3.78
O=[N+]([O-])c1cc2c3c(cc([N+](=O)[O-])cc3c1)-c1ccccc1-2	4.44	2.32
O=[N+]([O-])c1c(O)cc2cccc3c2c1-c1ccccc1-3	4.66	2.26
O=[N+]([O-])c1cc([N+](=O)[O-])c2ccc3cccc4ccc1c2c43	4.44	5.04
O=C1c2ccccc2-c2cc([N+](=O)[O-])ccc21	3.06	2.13
Nc1ccc([N+](=O)[O-])cc1N	0.88	0.63
Cn1ccc2cc([N+](=O)[O-])ccc21	2.5	
Cc1ccccc1-c1ccc([N+](=O)[O-])cc1	4.27	-0.23
O=[N+]([O-])c1cc2ccc3cccc4ccc(c1)c2c34	4.69	3.35
O=[N+]([O-])c1ccc2c(c1)Cc1cc(O)ccc1-2	3.43	1.68
O=[N+]([O-])c1ccc2ccc3cc4c(c5ccc1c2c35)CCCC4	6.57	0.9
O=C(Nc1ccc2c(c1)Cc1cc([N+](=O)[O-])ccc1-2)C(F)(F)F	4.23	2.81
O=[N+]([O-])c1cc(F)ccc1F	1.89	-0.79
O=[N+]([O-])c1ccc2c(c1)Cc1cc(Cl)ccc1-2	4.68	3.11
O=[N+]([O-])C1=Cc2ccc3ccc4cccc5cc1c2c3c45	4.35	0.77
O=C1Nc2ccc([N+](=O)[O-])cc2C1=O [5-NITROISATIN]	0.47	-0.94
O=[N+]([O-])c1ccc2c(c1)Cc1cc(F)ccc1-2	4.11	2.68
O=[N+]([O-])C1=Cc2c3c1cccc3cc1ccc3ccccc3c21	5.07	0.26
COc1ccc2c(c1)Cc1cc([N+](=O)[O-])ccc1-2	3.95	2.79
Cn1c([N+](=O)[O-])nc2ccccc21	1.58	2.54
O=[N+]([O-])C1=Cc2cc3cc4ccccc4cc3c3cccc1c23	5.07	0.67

Compound	logP [1]	Activity (Salmonella typhimurium)
CN1Cc2cc([N+](=O)[O-])ccc2N1	1.77	-1.1
O=[N+]([O-])c1ccc2c(c1)CC=C2	2.74	0.96
O=[N+]([O-])c1ccc2c(c1)Nc1cccc([N+](=O)[O-])c1N2	2.29	2.02
CC(=O)Oc1cc([N+](=O)[O-])c2ccc3cccc4ccc1c2c43	4.42	4.22
O=[N+]([O-])c1ccc2ccc3c4ccccc4cc4ccc1c2c43	5.87	2.82
O=[N+]([O-])c1cc2ccccc2c2ccccc12	4.23	2.25
O=[N+]([O-])c1cc2c3c(c1)CCc1cc([N+](=O)[O-])cc(c1-3)CC2	5.02	3.5
O=[N+]([O-])c1cc2cccc3ccc4cccc1c4c32	4.69	
O=[N+]([O-])c1cc2ccc3cc([N+](=O)[O-])cc4ccc(c1)c2c34	4.44	
O=[N+]([O-])c1cc2cccnc2c2ncccc12	1.84	0.59
O=[N+]([O-])c1cccc(F)c1	1.9	
O=[N+]([O-])c1cc2c3c(c1)CCc1cccc(c1-3)CC2	5.28	1.58
O=[N+]([O-])c1cccc2c([N+](=O)[O-])cccc12	2.58	0.52
O=[N+]([O-])C1=CC2Nc3cc([N+](=O)[O-])ccc3NC2C=C1 (centres undefined)	2.29	2.75
Nc1ccc2ccc3ccc([N+](=O)[O-])c4ccc1c2c34	3.63	2.43
O=[N+]([O-])c1ccc2ccc3cccc4cc(O)c1c2c34	4.34	1.89
O=[N+]([O-])c1ccc2ccc3cccc4c5ccccc5c1c2c34	5.87	
O=[N+]([O-])c1ccccc1F	1.69	
CC(=O)Oc1ccc2c(c1)Cc1cc([N+](=O)[O-])ccc1-2	3.46	1.86
O=[N+]([O-])c1ccc(/C=C/c2ccccc2)cc1	4.18	
O=[N+]([O-])c1c2c(cc3ccccc13)C=CC(O)C2O (centres undefined)	1.38	
O=C1OCCN1/N=C/c1ccc([N+](=O)[O-])o1 [FURAZOLIDONE]		2.24
O=[N+]([O-])c1ccc(Cl)c(Cl)c1	3.12	
O=C1c2cc([N+](=O)[O-])ccc2-c2ccc([N+](=O)[O-])cc21	2.84	
O=[N+]([O-])c1ccc2cccc3c2c1-c1ccccc1-3	4.69	
O=[N+]([O-])c1cccc2[nH]ccc12	2.13	

Compound	logP [1]	Activity (Salmonella typhimurium)
Cc1ncc([N+](=O)[O-])n1CCO [METRONIDAZOLE]	-0.02	
O=[N+]([O-])c1c2c(c3ccc4cccc5ccc1c3c45)CCCC2	6.57	
O=[N+]([O-])c1c2c(cc3ccccc13)C(O)C(O)C=C2 (centres undefined)	3.4	
Cn1ccc2cccc([N+](=O)[O-])c21	2.5	
O=[N+]([O-])c1ccc2nc3ccccc3nc2c1	2.52	
O=[N+]([O-])c1cccc2cc[nH]c12	2.13	
O=[N+]([O-])c1ccc2c(c1)CCN2	2.07	
O=C1CN(/N=C/c2ccc([N+](=O)[O-])o2)C(=O)N1 [NITROFURANTOIN]		1.03
O=[N+]([O-])c1c2c(cc3c1ccc1ccccc13)C=CC(O)C2O (centres undefined)	2.55	
O=[N+]([O-])c1ccc2ccccc2c1	3.24	
O=[N+]([O-])c1ccc(Cl)cc1Cl	3.09	
O=[N+]([O-])c1cccc2cccnc12	1.44	
O=Cc1ccccc1[N+](=O)[O-] [2-NITROBENZALDEHYDE]		-1.92
O=[N+]([O-])c1c2cccc(O)c2cc2c1ccc1ccccc12	5.06	
O=[N+]([O-])c1ccc2c3ccccc3c3cccc4ccc1c2c43	5.87	
CN1CCc2cc([N+](=O)[O-])ccc21	2.86	
CC(=O)c1ccc([N+](=O)[O-])cc1	1.53	
O=[N+]([O-])c1c2c(c3ccc4cccc5ccc1c3c45)CCCC2O (centres undefined)	4.78	
O=[N+]([O-])c1cccc(Cl)c1	2.41	
O=[N+]([O-])c1ccc(Cl)cc1	2.39	
O=Cc1ccc([N+](=O)[O-])cc1	1.56	
O=[N+]([O-])c1ccc2c3cccc4cccc(c5cccc1c52)c43	5.87	
Nc1ccc(-c2ccc([N+](=O)[O-])cc2)cc1	2.68	
O=[N+]([O-])c1cccc2c3ccccc3c3ccccc3c12	5.41	
